In paper PMC9133036 (Nature Communications, 2022):
Substitutions are numbered along the chain they refer to. pEC50: −log10 of the molar value.

Legend:
[1] = target: T1, OX1R A127T (Homo sapiens, UniProt O43613, A127T); test: IP accumulation assay, OX1R A127T; assay type: cell-based
T1 construct: FLAG; expressed in transfected cells; host or cells: HEK293
T1 sequence (O43613 1-425 A127T): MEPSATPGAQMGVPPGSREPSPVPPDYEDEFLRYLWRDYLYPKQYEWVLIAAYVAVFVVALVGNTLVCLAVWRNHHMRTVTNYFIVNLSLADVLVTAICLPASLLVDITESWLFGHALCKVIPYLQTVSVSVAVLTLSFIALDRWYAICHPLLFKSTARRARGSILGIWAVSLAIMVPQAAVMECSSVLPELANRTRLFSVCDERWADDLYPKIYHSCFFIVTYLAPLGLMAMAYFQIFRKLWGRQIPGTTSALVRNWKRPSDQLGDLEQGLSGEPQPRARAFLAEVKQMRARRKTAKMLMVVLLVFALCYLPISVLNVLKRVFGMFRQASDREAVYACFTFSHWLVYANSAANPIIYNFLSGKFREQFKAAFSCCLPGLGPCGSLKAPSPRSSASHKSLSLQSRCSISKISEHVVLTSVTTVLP
Source text: (§1) The IP assay was adapted from a prior precedent. HEK293 cells were maintained in DMEM-high glucose (Millipore Sigma) supplemented with 5% fetal bovine serum (Corning) and penicillin-streptomycin (Millipore Sigma). Receptor constructs used were the full-length wild-type (or mutant) human OX1R and OX2R sequences cloned into pCDNA3. To enhance the Emax in the IP assay, a plasmid encoding full-length human Gαq subunit[66] was co-transfected into HEK293 cells with plasmids encoding orexin receptor constructs using Lipofectamine 3000 (Thermo Fisher). 24 h after transfection, the cells were plated on poly-D-lysine coated (Millipore Sigma) tissue culture-treated 96 well white plates with clear bottoms (Perkin Elmer) at 30,000 cells per well in Inositol-free DMEM (MP Biomedicals) supplemented with 5% fetal bovine serum, 4 mM L-glutamine (Millipore Sigma), penicillin-streptomycin, and about 5 uCi (5 ul) per ml myo-[2-3H] inositol (Perkin Elmer). The following day, the media was replaced with agonists that were diluted in HBSS (Millipore Sigma) containing 10 mM lithium chloride (Millipore Sigma) and incubated at 37 °C for 45 min. Then agonists were removed and cells were lysed on ice for 30 min with 10 mM formic acid (Millipore Sigma). 1.25 mg of poly-lysine coated YSI SPA beads (Perkin Elmer) was added to each well. The plates were mixed on an orbital shaker for 30 min. The plates were read on a MicroBeta scintillation counter (Perkin Elmer) the following day. IP accumulation assays on different constructs were performed in n ≥ 3 independent experiments (each done in duplicate), where n is shown in Supplementary Table 2.

[2] = target: T2, OX1R S103T/A127T (Homo sapiens, UniProt O43613, A127T/S103T); test: IP accumulation assay, OX1R S103T/A127T; assay type: cell-based
T2 construct: FLAG; expressed in transfected cells; host or cells: HEK293
T2 sequence (O43613 1-425 S103T/A127T): T1 sequence (O43613 1-425 A127T) with S103T
Source text: as §1

[3] = target: T3, OX2R Q187A (Homo sapiens, UniProt O43614, Q187A); test: β-arrestin PathHunter assay, OX2R Q187A; assay type: cell-based; settings: β-arrestin recruitment
T3 construct: expressed in transfected cells; host or cells: CHO-K1 stably expressing EA β-arrestin2
T3 sequence (O43614 whole entry Q187A): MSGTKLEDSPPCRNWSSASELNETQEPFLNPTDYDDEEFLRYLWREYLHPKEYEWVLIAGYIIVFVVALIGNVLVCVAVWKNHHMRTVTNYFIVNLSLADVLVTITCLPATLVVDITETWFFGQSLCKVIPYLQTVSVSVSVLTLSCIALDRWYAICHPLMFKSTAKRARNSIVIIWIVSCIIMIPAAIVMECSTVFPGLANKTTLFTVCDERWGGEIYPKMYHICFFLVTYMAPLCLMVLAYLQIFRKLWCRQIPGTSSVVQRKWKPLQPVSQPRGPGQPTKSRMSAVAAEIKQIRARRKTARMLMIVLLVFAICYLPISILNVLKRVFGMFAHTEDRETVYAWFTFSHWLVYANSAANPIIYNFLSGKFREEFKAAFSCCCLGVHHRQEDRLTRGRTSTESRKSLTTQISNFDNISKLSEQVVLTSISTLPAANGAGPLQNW
Protocol: (§2) β-Arrestin recruitment activity was measured by using the PathHunter system (DiscoveRX) according to the manufacturer’s instruction. Receptor constructs used were the full-length wild-type (or mutant) human OX2R sequences cloned into pCMV-ProLink (DiscoveRX). CHO-K1 cells stably expressing EA β-arrestin2 (DiscoveRX) were plated on 384 well white plates (Thermo Fisher) at 4000 cells/well in HamF12 (Wako Pure Chemical Industries) supplemented with 10% fetal bovine serum (Corning) and penicillin-streptomycin (Wako Pure Chemical Industries) and incubated overnight at 37 °C under 5% CO2. Cells were transfected with plasmids encoding wild type or each mutant ProLink-tagged human OX2R using FuGENE HD (Promega). […] Detection reagent was added and incubated for 1 h at room temperature. Luminescent signal was detected using an EnVision plate reader (PerkinElmer). β-arrestin assays on different constructs were performed in two or three independent experiments (each done in quadruplicate). Dose response curves (shown in Supplementary Fig. 8) were fitted to the three-parameter model ‘log(agonist) vs response’ in GraphPad Prism to determine pEC50 values.

[4] = target: T4, OX2R Y232A (Homo sapiens, UniProt O43614, Y232A); test: β-arrestin PathHunter assay, OX2R Y232A; assay type: cell-based; settings: β-arrestin recruitment
T4 construct: expressed in transfected cells; host or cells: CHO-K1 stably expressing EA β-arrestin2
T4 sequence (O43614 whole entry Y232A): as the sequence (O43614 whole entry Q187A) above, with A187Q, Y232A counted along it
Protocol: as §2

[5] = target: T5, OX2R K327A (Homo sapiens, UniProt O43614, K327A); test: β-arrestin PathHunter assay, OX2R K327A; assay type: cell-based; settings: β-arrestin recruitment
T5 construct: expressed in transfected cells; host or cells: CHO-K1 stably expressing EA β-arrestin2
T5 sequence (O43614 whole entry K327A): as the sequence (O43614 whole entry Q187A) above, with A187Q, K327A counted along it
Protocol: as §2

[6] = target: T6, OX2R F346A (Homo sapiens, UniProt O43614, F346A); test: β-arrestin PathHunter assay, OX2R F346A; assay type: cell-based; settings: β-arrestin recruitment
T6 construct: expressed in transfected cells; host or cells: CHO-K1 stably expressing EA β-arrestin2
T6 sequence (O43614 whole entry F346A): as the sequence (O43614 whole entry Q187A) above, with A187Q, F346A counted along it
Protocol: as §2

[7] = tested on: OX2R; settings: cited from earlier work
[8] = 0.75 h, TAK-925 conc (log, M) -4.00
[9] = 0.75 h, TAK-925 conc (log, M) -4.48
[10] = 0.75 h, TAK-925 conc (log, M) -4.95
[11] = 0.75 h, TAK-925 conc (log, M) -5.43
[12] = 0.75 h, TAK-925 conc (log, M) -5.91
[13] = 0.75 h, TAK-925 conc (log, M) -6.39
[14] = 0.75 h, TAK-925 conc (log, M) -7.82

activation at 100 µM [1, 8]: 109% | activation at 33.1 µM [1, 9]: 92.5% | activation at 11.2 µM [1, 10]: 78.5% | activation at 3.72 µM [1, 11]: 56% | activation at 1.23 µM [1, 12]: 27.7% | activation at 0.407 µM [1, 13]: 18.7% | activation at 0.0457 µM ([1]; 0.75 h, TAK-925 conc (log, M) -7.34): 12% | activation at 0.0151 µM [1, 14]: 13.1% | activation at 0.0017 µM ([1]; 0.75 h, TAK-925 conc (log, M) -8.77): 0% | pEC50 ([1]; IP accumulation): 5.33 | % IP accumulation ([1]; TAK-925 conc (log, M) -8.77): 0.00% | Emax ([1]; relative to OX1R S103T/A127T/TAK-925): 100 | activation at 100 µM [2, 8]: 90.6% | activation at 33.1 µM [2, 9]: 102% | activation at 11.2 µM [2, 10]: 99.6% | activation at 3.72 µM [2, 11]: 94.2% | activation at 1.23 µM [2, 12]: 81.6% | activation at 0.407 µM [2, 13]: 58.2% | activation at 0.138 µM ([2]; 0.75 h, TAK-925 conc (log, M) -6.86): 26.9% | activation at 0.0151 µM [2, 14]: 6.39% | pEC50 ([2]; IP accumulation): 6.52 | Emax ([2]; normalized to OX1R S103T/A127T Emax): 100 | pEC50 [3]: 5.49 | pEC50 [4]: 5.07 | pEC50 [5]: 5.64 | pEC50 [6]: 6.46
SMILES: COC(=O)N1CCC[C@H](NS(C)(=O)=O)[C@@H]1CO[C@H]1CC[C@@H](c2ccccc2)CC1 [TAK-925, methyl (2R,3S)−3-[(methylsulfonyl)amino]−2-{[(cis−4-phenylcyclohexyl)oxy]methyl}piperidine-1-carboxylate]
potency for OX2R activation [7]: low-nanomolar
